Assay results as given in ChEMBL document CHEMBL3232845 (Bioorg Med Chem Lett, 2014).

Tests used:
[1] = biological target: T1, Serine/threonine-protein kinase B-raf (Homo sapiens, UniProt P15056, V600E); experiment: Inhibition of B-Raf V600E mutant in human Malme-3M cells assessed as basal ERK phosphorylation; type: cell-based
[2] = biological target: T1, Serine/threonine-protein kinase B-raf; experiment: Inhibition of full-length B-Raf V600E mutant (unknown origin)
[3] = Clearance in mouse at 2.5 mg/kg, iv; type: ADME, organism-based; parameters: dose 2.5 mg/kg, route intravenous; conditions: in vivo
[4] = Oral bioavailability in mouse at 30 mg/kg; type: ADME, organism-based; conditions: in vivo
[5] = AUC in mouse at 30 mg/kg, po; type: ADME, organism-based; parameters: dose 30 mg/kg, route oral; conditions: plasma
[6] = Volume of distribution in mouse; type: ADME, organism-based; conditions: in vivo
[7] = Apparent permeability of the compound from apical to basolateral direction in pig LLC-PK1 cells; type: ADME, cell-based, Sus scrofa

T1 sequence (P15056 2-766 V600E limits assumed): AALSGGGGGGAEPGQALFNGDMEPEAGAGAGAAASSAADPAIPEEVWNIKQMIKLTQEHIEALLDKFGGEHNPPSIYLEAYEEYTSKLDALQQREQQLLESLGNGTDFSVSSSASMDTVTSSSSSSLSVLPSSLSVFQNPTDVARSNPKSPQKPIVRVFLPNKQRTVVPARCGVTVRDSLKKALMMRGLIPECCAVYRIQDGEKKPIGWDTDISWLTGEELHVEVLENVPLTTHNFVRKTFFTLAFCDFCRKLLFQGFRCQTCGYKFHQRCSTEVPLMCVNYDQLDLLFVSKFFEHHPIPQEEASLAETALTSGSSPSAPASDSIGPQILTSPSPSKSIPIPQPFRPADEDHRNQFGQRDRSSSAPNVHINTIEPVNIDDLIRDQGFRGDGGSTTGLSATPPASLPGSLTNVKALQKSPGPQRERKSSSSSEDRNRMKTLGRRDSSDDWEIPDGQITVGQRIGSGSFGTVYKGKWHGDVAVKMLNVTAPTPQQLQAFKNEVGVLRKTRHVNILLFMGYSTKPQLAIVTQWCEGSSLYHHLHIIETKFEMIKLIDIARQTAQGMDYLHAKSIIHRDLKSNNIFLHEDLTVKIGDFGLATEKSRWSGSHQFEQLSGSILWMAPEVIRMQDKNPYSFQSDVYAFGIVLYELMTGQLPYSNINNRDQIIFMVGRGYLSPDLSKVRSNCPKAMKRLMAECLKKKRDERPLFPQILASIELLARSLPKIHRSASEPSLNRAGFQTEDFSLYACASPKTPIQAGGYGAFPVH

| SMILES | IC50 [1] [nM] | IC50 [2] [nM] | further results |
| --- | --- | --- | --- |
| CCCS(=O)(=O)Nc1ccc(F)c(Oc2ccc3ncn(C)c(=O)c3c2)c1C#N | 3 | 0.2 |  |
| CCCS(=O)(=O)Nc1ccc(Cl)c(Nc2ccc3ncn(C)c(=O)c3c2)c1F | 116 | 12 |  |
| CCCS(=O)(=O)Nc1ccc(F)c(N(C)c2ccc3ncn(C)c(=O)c3c2)c1F | 62 | 11 |  |
| CCCS(=O)(=O)Nc1ccc(Cl)c(N(C)c2ccc3ncn(C)c(=O)c3c2)c1F | 84 | 3 |  |
| CCCS(=O)(=O)Nc1ccc(Cl)c(Oc2ccc3ncn(C)c(=O)c3c2)c1C#N | 15 | 0.2 |  |
| CCCS(=O)(=O)Nc1ccc(F)c(Nc2ccc3ncnc(OC)c3c2)c1Cl | 733 | 16 |  |
| CCCS(=O)(=O)Nc1ccc(F)c(Nc2ccc3ncn(C)c(=O)c3c2)c1F | 55 | 19 |  |
| CCCS(=O)(=O)Nc1ccc(F)c(Nc2ccc3ncnc(N(C)C)c3c2)c1Cl | 878 | 100 |  |
| CCCS(=O)(=O)Nc1ccc(F)c(N(CC)c2ccc3ncn(C)c(=O)c3c2)c1F | 110 | 26 |  |
| CCCS(=O)(=O)Nc1ccc(F)c(Nc2ccc3ncnc(NC)c3c2)c1Cl | 132 | 11 |  |
| CCCS(=O)(=O)Nc1ccc(F)c(Nc2ccc3ncncc3c2)c1Cl | 44 | 4 |  |
| CCCS(=O)(=O)Nc1cccc(Oc2ccc3ncn(C)c(=O)c3c2)c1C#N | 7 | 0.3 |  |
| CCCS(=O)(=O)Nc1ccc(C)c(Nc2ccc3ncn(C)c(=O)c3c2)c1 |  | 851 |  |
| CCCS(=O)(=O)Nc1ccc(F)c(Nc2ccc3ncncc3c2)c1F | 118 | 33 |  |
| CCCS(=O)(=O)Nc1ccc(Cl)c(Nc2ccc3ncn(C)c(=O)c3c2)c1C#N | 16 | 0.2 |  |
| CCCS(=O)(=O)Nc1ccc(F)c(Nc2ccc3ncccc3c2)c1F | 6250 | 314 |  |
| CCCS(=O)(=O)Nc1ccc(F)c(N(CC)c2ccc3ncn(C)c(=O)c3c2)c1Cl | 603 | 30 |  |
| CCCS(=O)(=O)Nc1ccc(F)c(N(C)c2ccc3ncn(C)c(=O)c3c2)c1Cl | 114 | 8 |  |
| CCCS(=O)(=O)Nc1ccc(F)c(Nc2ccc3ncn(-c4cnn(C)c4)c(=O)c3c2)c1Cl | 18 | 2 |  |
| CCCS(=O)(=O)Nc1ccc(F)c(Nc2ccc3ncn(C)c(=O)c3c2)c1Cl | 26 | 2 | clearance [3]: 4.7 mL/min/kg; bioavailability [4]: 112%; AUC [5]: 282 µM·h; Vd [6]: 0.49 L/kg; Papp A→B [7]: > 8 ×10⁻⁶ cm/s |
| CCCS(=O)(=O)Nc1ccc(F)c(Nc2ccc3ncn(Cc4ccccc4)c(=O)c3c2)c1Cl | 581 | 17 |  |
| CCCS(=O)(=O)Nc1ccc(F)c(Nc2ccc3nccnc3c2)c1Cl | 814 | 25 |  |
